Assay results taken from BindingDB's records for doi:10.1074/jbc.M209367200 (University of Padova, 2003).

Target: Casein kinase II subunit alpha (Zea mays, UniProt P28523)
Test: Kinase Inhibition Assay
Settings: pH 7.5; 22 °C
Experimental: In vitro kinase assay using purified enzyme, was incubated at room temperature with substrate, and test compounds in the presence of 100 uM ATP/ [gamma-33P] ATP. 33P incorporation was measured with scintillation counter. IC50 values were calculated from dose-response curves; from these calculated apparent inhibition constants (Ki) were obtained using the Cheng-Prusoff equation: Ki = IC50/ (1 + ([ATP]/Km)).

Sequence of Casein kinase II subunit alpha (P28523 whole entry): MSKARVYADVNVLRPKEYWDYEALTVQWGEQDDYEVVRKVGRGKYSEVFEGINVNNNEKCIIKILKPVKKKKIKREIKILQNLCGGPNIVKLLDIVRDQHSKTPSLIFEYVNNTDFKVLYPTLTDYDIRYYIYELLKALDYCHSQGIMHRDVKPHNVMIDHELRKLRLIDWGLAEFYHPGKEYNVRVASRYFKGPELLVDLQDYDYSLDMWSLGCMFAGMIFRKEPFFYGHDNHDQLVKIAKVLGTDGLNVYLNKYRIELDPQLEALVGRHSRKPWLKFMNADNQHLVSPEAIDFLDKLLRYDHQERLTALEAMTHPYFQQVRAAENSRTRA

Row | Ki [µM] | SMILES
1 | > 40 | O=C1c2cccc(O)c2C(=O)c2c(O)cccc21 [1,8-dihydroxy-anthraquinone]
2 | > 40 | O=c1c2c(O)cccc2oc2cccc(O)c12 [1,8-dihydroxy-9H-xanthen-9-one]
